Experimental data reported in patent publication US11566007B2, “Ras inhibitors” (Revolution Medicines, Inc., priority 2019, dated 2023).
Several values for one entry are separate records, joined by “and”; a condition that tells them apart may be missing. Equal values may be shown once. Read-outs that look alike come from different tables or passages of the source.

How the values were obtained:
[1] = tested on: NCI-H358 cells (K-Ras G12C); test: Potency assay: pERK in NCI-H358 cells; assay type: cell-based, human; conditions: H358 KRAS G12C, read-out: pERK EC50
In short: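 Inhibition of cellular pERK after a 4 h treatment, detected by AlphaLISA or In-Cell Western. IC50 from a four-parameter concentration-response fit.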

K-Ras G12C = K-Ras G12C (Homo sapiens (Human), UniProt P01116+P62937, G12C); test: Ras-Raf (BRAF RBD) disruption / FRET / MOA assay, KRAS G12C; assay type: biochemical; conditions: KRAS G12C, Ras-Raf disruption/FRET/MOA assay
Sequence of K-Ras G12C (P01116-2 other isoform, or with tags, fused parts or gaps G12C): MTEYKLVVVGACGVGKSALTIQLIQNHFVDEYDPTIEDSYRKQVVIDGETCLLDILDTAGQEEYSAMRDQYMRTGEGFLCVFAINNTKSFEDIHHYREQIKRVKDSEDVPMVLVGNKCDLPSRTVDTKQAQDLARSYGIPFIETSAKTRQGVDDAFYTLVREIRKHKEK
Sequence of K-Ras G12C (P62937 whole entry): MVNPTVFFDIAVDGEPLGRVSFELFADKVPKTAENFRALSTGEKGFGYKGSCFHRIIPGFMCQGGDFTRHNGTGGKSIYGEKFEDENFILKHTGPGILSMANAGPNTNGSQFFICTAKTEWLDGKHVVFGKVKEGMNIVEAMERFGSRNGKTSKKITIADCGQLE
In short: (§1)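 TR-FRET read-out: a drop in ratio relative to DMSO wells marks disruption of the Ras:RAF complex, reported as IC50. Compounds (3-fold series, 10 points, top 30 μM final) incubated 3 h at 25° C before Eu-anti-His 10 nM and APC-anti-GST 50 nM, 1.5 h more.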

K-Ras G13C = K-Ras G13C (Homo sapiens (Human), UniProt P01116+P62937, G13C); test: Ras-Raf (BRAF RBD) disruption / FRET / MOA assay, KRAS G13C; assay type: biochemical; conditions: KRAS G13C; Ras-Raf disruption/FRET/MOA assay; read-out: IC50* KRAS G13C FRET data
Sequence of K-Ras G13C (P01116-2 other isoform, or with tags, fused parts or gaps G13C): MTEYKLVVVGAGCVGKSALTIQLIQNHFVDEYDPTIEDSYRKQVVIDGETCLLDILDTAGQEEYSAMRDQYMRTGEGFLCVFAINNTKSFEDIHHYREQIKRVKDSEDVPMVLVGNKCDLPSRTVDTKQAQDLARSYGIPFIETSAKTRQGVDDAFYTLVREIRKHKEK
Sequence of K-Ras G13C (P62937 whole entry): as the sequence (P62937 whole entry) above
In short: as §1

KRAS Q61H = KRAS Q61H (Homo sapiens (Human), UniProt P01116+P62937, Q61H); test: Ras-Raf (BRAF RBD) disruption / FRET / MOA assay, KRAS Q61H; assay type: biochemical; conditions: Ras-Raf disruption/FRET/MOA assay; class symbols; read-out: KRAS Q61H FRET data IC50
Sequence of KRAS Q61H (P01116-2 other isoform, or with tags, fused parts or gaps Q61H): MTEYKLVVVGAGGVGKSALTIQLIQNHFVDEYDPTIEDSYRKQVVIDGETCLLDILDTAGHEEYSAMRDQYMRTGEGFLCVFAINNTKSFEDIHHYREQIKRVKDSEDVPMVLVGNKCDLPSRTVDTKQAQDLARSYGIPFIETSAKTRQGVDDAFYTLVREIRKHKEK
Sequence of KRAS Q61H (P62937 whole entry): as the sequence (P62937 whole entry) above
In short: (§2)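 Compounds were tested as a 10-point 3-fold dilution series from 30 μM final for their ability to drive ternary complex formation between nucleotide-loaded Ras and cyclophilin A, displacing the BRAF RBD. After 3 h at 25° C., anti-His Eu-W1024 (10 nM) and anti-GST allophycocyanin (50 nM) were added for 1.5 h. A TR-FRET ratio decrease versus DMSO gave IC50.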

NRAS Q61R = NRAS Q61R (Homo sapiens (Human), UniProt P01111+P62937, Q61R); test: Ras-Raf (BRAF RBD) disruption / FRET / MOA assay, NRAS Q61R; assay type: biochemical; conditions: NRAS Q61R; Ras-Raf disruption/FRET/MOA assay; read-out: IC50* NRAS Q61R FRET data
Sequence of NRAS Q61R (P01111 whole entry Q61R): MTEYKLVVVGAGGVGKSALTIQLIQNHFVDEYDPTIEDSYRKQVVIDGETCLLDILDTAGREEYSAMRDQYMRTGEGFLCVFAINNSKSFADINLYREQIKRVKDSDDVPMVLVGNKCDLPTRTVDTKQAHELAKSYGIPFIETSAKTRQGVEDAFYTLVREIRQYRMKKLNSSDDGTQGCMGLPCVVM
Sequence of NRAS Q61R (P62937 whole entry): as the sequence (P62937 whole entry) above
In short: as §2

NRAS WT = NRAS WT (Homo sapiens (Human), UniProt P01111+P62937); test: Ras-Raf (BRAF RBD) disruption / FRET / MOA assay, NRAS WT; assay type: biochemical; conditions: read-out: IC50* NRAS WT FRET data
Sequence of NRAS WT (P01111 whole entry): as the sequence (P01111 whole entry Q61R) above, with R61Q counted along it
Sequence of NRAS WT (P62937 whole entry): as the sequence (P62937 whole entry) above
In short: as §2

[2] = read-out: IC50* KRAS G12C FRET data

Compound	EC50 ([1]; Homo sapiens, NCI-H358) [nM]	IC50 (K-Ras G12C; [2])	IC50 (K-Ras G13C)	IC50 (KRAS Q61H) [nM]	IC50 (NRAS Q61R) [nM]	IC50 (NRAS WT) [nM]	EC50 [1] [nM]	IC50 (K-Ras G12C; IC50* KRAS G12C FRET data) [nM]
C=CC(=O)N1CC[C@H](C(=O)N(C)[C@H](C(=O)N[C@H]2Cc3cc(O)cc(c3)-c3ccc4c(c3)c(c(-c3cccnc3[C@H](CC)OC)n4CC)CC(C)(C)COC(=O)[C@@H]3CCCN(N3)C2=O)C(C)C)C1 (atropisomer, axis not shown) [Example A181]	< 5000	10 to 100 nM and 100 to 1000 nM	100 to 1000 nM and 1000 to 10000 nM	10 to 100	100 to 1000	100 to 1000	–	–
C=CC(=O)N1CC[C@H](C(=O)N(C)[C@H](C(=O)N[C@H]2Cc3nc(ns3)-c3ccc4c(c3)c(c(-c3cccnc3[C@H](C)OC)n4CC)CC(C)(C)COC(=O)[C@@H]3CCCN(N3)C2=O)C(C)C)C1 (atropisomer, axis not shown) [Example A202]	< 5000	1000 to 10000 nM	> 10000 nM	1000 to 10000	> 10000	1000 to 10000	–	–
C=CC(=O)N1CC[C@H](C(=O)N(C)[C@H](C(=O)N[C@H]2Cc3cc(O)cc(c3)-c3ccc4c(c3)c(c(-c3cccnc3[C@@H](OC)C3CC3)n4CC)CC(C)(C)COC(=O)[C@@H]3CCCN(N3)C2=O)C(C)C)C1 (atropisomer, axis not shown) [Example A207]	–	10 to 100 nM	100 to 1000 nM	10 to 100	100 to 1000	100 to 1000	< 5000	–
C=CC(=O)N1CC[C@H](C(=O)N(C)[C@H](C(=O)N[C@H]2Cc3cc(O)cc(c3)-c3ccc4c(c3)c(c(-c3cccnc3[C@@H]3CCCO3)n4CC)CC(C)(C)COC(=O)[C@@H]3CCCN(N3)C2=O)C(C)C)C1 (atropisomer, axis not shown) [Example A281]	< 5000	10 to 100 nM and 100 to 1000 nM	10 to 100 nM and 100 to 1000 nM	10 to 100	100 to 1000	100 to 1000	–	–
C=CC(=O)N1CC[C@H](C(=O)N(C)[C@H](C(=O)N[C@H]2Cc3nc(n(C)n3)-c3ccc4c(c3)c(c(-c3cccnc3[C@H](C)OC)n4CC)CC(C)(C)COC(=O)[C@@H]3CCCN(N3)C2=O)C(C)C)C1 (atropisomer, axis not shown) [Example A314]	< 5000	100 to 1000 nM	100 to 1000 nM	100 to 1000	100 to 1000	1000 to 10000	–	–
C=CC(=O)N1CC[C@H](C(=O)N(C)[C@H](C(=O)N[C@H]2Cc3csc(n3)-c3ccc4c(c3)c(c(-c3cccnc3[C@H](C)OC)n4CC)CC(C)(C)COC(=O)[C@@H]3CCCN(N3)C2=O)C(C)C)C1 (atropisomer, axis not shown) [Example A330]	< 5000	100 to 1000 nM	1000 to 10000 nM	100 to 1000	1000 to 10000	1000 to 10000	–	–
C=CC(=O)N1CC[C@]2(C1)CN(C(=O)N(C)[C@H](C(=O)N[C@H]1Cc3nc(cs3)-c3ccc4c(c3)c(c(-c3cccnc3[C@H](C)OC)n4CC)CC(C)(C)COC(=O)[C@@H]3CCCN(N3)C1=O)C(C)C)CCO2 (atropisomer, axis not shown) [Example A354]	< 5000	100 to 1000 nM	100 to 1000 nM	10 to 100	100 to 1000	100 to 1000	–	–
C=CC(=O)N1CC[C@@]2(C1)OCN([C@H](C(=O)N[C@H]1Cc3cccc(c3)-c3ccc4c(c3)c(c(-c3cccnc3[C@H](C)OC)n4CC)CC(C)(C)COC(=O)[C@@H]3CCCN(N3)C1=O)C(C)C)C2=O (atropisomer, axis not shown) [Example A358]	< 5000	100 to 1000 nM	100 to 1000 nM	100 to 1000	1000 to 10000	100 to 1000	–	–
CO[C@@H](C)c1ncccc1-c1c2c3cc(ccc3n1CC(F)(F)F)-c1csc(n1)C[C@H](NC(=O)CCOC1CN(C(=O)C#CC(C)(C)N3CCC3)C1)C(=O)N1CCC[C@H](N1)C(=O)OCC(C)(C)C2 (atropisomer, axis not shown) [Example A363]	< 5000	10 to 100 nM	1000 to 10000 nM	1000 to 10000	1000 to 10000	1000 to 10000	–	–
C=CC(=O)N(C)C[C@H]1CCN1C(=O)N(C)[C@H](C(=O)N[C@H]1Cc2nc(cs2)-c2ccc3c(c2)c(c(-c2cccnc2[C@H](C)OC)n3CC)CC(C)(C)COC(=O)[C@@H]2CCCN(N2)C1=O)C(C)C (atropisomer, axis not shown) [Example A369]	< 5000	100 to 1000 nM	100 to 1000 nM	100 to 1000	100 to 1000	100 to 1000	–	–
C=CC(=O)N1CC[C@H](C(=O)N(C)[C@H](C(=O)N[C@H]2Cc3cccc(c3)-c3ccc4c(c3)c(c(-c3cccnc3[C@H](C)OC)n4CC)CC(C)(C)COC(=O)[C@@H]3CCCN(N3)C2=O)C(C)C)[C@H]1C (atropisomer, axis not shown) [Example A373]	< 5000	100 to 1000 nM	100 to 1000 nM	100 to 1000	1000 to 10000	1000 to 10000	–	–
CO[C@@H](C)c1ncccc1-c1c2c3cc(ccc3n1CC(F)(F)F)-c1cc(cc(C(F)F)c1)C[C@H](NC(=O)[C@@H](COC1CN(C(=O)C#CC(C)(C)N(C)C)C1)C(C)C)C(=O)N1CCC[C@H](N1)C(=O)OCC(C)(C)C2 (atropisomer, axis not shown) [Example A374]	< 5000	100 to 1000 nM	> 10000 nM	> 10000	> 10000	> 10000	–	–
CCn1c(-c2cccnc2[C@H](C)OC)c2c3cc(ccc31)-c1csc(n1)C[C@H](NC(=O)CCO[C@H]1CCN(C(=O)C#CC(C)(C)N3CCC3)C1)C(=O)N1CCC[C@H](N1)C(=O)OCC(C)(C)C2 (atropisomer, axis not shown) [Example A381]	< 5000	< 10 nM	1000 to 10000 nM	1000 to 10000	1000 to 10000	1000 to 10000	–	–
C=CC(=O)N(C)C[C@@H]1CCN1C(=O)N(C)[C@H](C(=O)N[C@H]1Cc2nc(cs2)-c2ccc3c(c2)c(c(-c2cccnc2[C@H](C)OC)n3CC)CC(C)(C)COC(=O)[C@@H]2CCCN(N2)C1=O)C(C)C (atropisomer, axis not shown) [Example A390]	< 5000	100 to 1000 nM	100 to 1000 nM	100 to 1000	1000 to 10000	1000 to 10000	–	–
C=CC(=O)N1CC[C@H](C(=O)N(C)[C@H](C(=O)N[C@H]2Cc3cccc(c3)-c3ccc4c(c3)c(c(-c3cc(C5CN(C)C5)cnc3[C@H](C)OC)n4CC)CC(C)(C)COC(=O)[C@@H]3CCCN(N3)C2=O)C(C)C)C1 (atropisomer, axis not shown) [Example A392]	< 5000	100 to 1000 nM	1000 to 10000 nM	1000 to 10000	1000 to 10000	1000 to 10000	–	–
C=CC(=O)N1CC[C@H](C(=O)N(C)[C@H](C(=O)N[C@H]2Cc3cccc(n3)-c3ccc4c(c3)c(c(-c3cccnc3[C@H](C)OC)n4CC)CC(C)(C)COC(=O)[C@@H]3CCCN(N3)C2=O)C(C)C)C1 (atropisomer, axis not shown) [Example A442]	< 5000	100 to 1000 nM	1000 to 10000 nM	1000 to 10000	1000 to 10000	> 10000	–	–
C=CC(=O)N1CC[C@H](C(=O)N(C)[C@H](C(=O)N[C@H]2Cc3cccc(c3)-c3ccc4c(c3)c(c(-c3cccnc3[C@H](C)OC)n4CC3COC3)CC(C)(C)COC(=O)[C@@H]3CCCN(N3)C2=O)C(C)C)C1 (atropisomer, axis not shown) [Example A481]	< 5000	100 to 1000 nM	1000 to 10000 nM	1000 to 10000	1000 to 10000	1000 to 10000	–	–
C=CC(=O)N1CC[C@H](C(=O)N2CCCCC[C@H]2C(=O)N[C@H]2Cc3nc(cs3)-c3ccc4c(c3)c(c(-c3cccnc3[C@H](C)OC)n4CC)CC(C)(C)COC(=O)[C@@H]3CCCN(N3)C2=O)C1 (atropisomer, axis not shown) [Example A495]	< 5000	100 to 1000 nM	1000 to 10000 nM	1000 to 10000	1000 to 10000	1000 to 10000	–	–
C=CC(=O)N(C)CCN1CCN(C(=O)N(C)[C@H](C(=O)N[C@H]2Cc3cccc(c3)-c3ccc4c(c3)c(c(-c3cccnc3[C@H](C)OC)n4CC)CC(C)(C)COC(=O)[C@@H]3CCCN(N3)C2=O)C(C)C)CC1 (atropisomer, axis not shown) [Example A539]	< 5000	100 to 1000 nM	10 to 100 nM	100 to 1000	100 to 1000	100 to 1000	–	–
C=CC(=O)N1CC[C@H](C(=O)N(C)[C@H](C(=O)N[C@H]2Cc3cc(O)cc(c3)-c3ccc4c(c3)c(c(-c3ncn(C)c3[C@H](C)OC)n4CC)CC(C)(C)COC(=O)[C@@H]3CCCN(N3)C2=O)C(C)C)C1 [Example A301]	< 5000	–	1000 to 10000 nM	1000 to 10000	> 10000	–	–	100 to 1000
